# Data reported in ChEMBL document CHEMBL3885881, “DrugMatrix”.
# Organism: Rattus norvegicus
# Test: DrugMatrix - Regimen: Daily Repeat
# Format: toxicity, organism-based, Sprague-Dawley
# Set-up: regimen Daily Repeat, gender Male, age 6-8 weeks
# Conditions: in vivo, po, route oral GAVAGE, […]; for ABSOLUTE BASOPHIL / ABSOLUTE EOSINOPHIL / ABSOLUTE LYMPHOCYTE / ABSOLUTE MONOCYTE / ABSOLUTE SEGMENTED NEUTROPHIL / BASOPHIL / EOSINOPHIL / ERYTHROCYTE COUNT / HEMATOCRIT / HEMOGLOBIN / LEUKOCYTE COUNT / LYMPHOCYTE / MEAN CORPUSCULAR HEMOGLOBIN / MEAN CORPUSCULAR HEMOGLOBIN CONCENTRATION / MEAN CORPUSCULAR VOLUME / MONOCYTE / NEUTROPHIL / NUCLEATED RED BLOOD CELLS / PLATELET COUNT: tissue Blood; for ALANINE AMINOTRANSFERASE / ALBUMIN / ALKALINE PHOSPHATASE / ASPARTATE AMINOTRANSFERASE / BLOOD UREA NITROGEN / CARBON DIOXIDE / CHLORIDE / CHOLESTEROL / CREATINE PHOSPHOKINASE / CREATININE / GLUCOSE / LACTATE DEHYDROGENASE / LIPASE / PHOSPHORUS / POTASSIUM / SODIUM / TOTAL BILIRUBIN / TOTAL PROTEIN / URIC ACID: tissue Plasma
# [1] = 0 mg/kg, 72 h, dose level Control, time 3 day
# [2] = 0 mg/kg, 120 h, dose level Control, time 5 day
# [3] = 30 mg/kg, 72 h, dose level Low, time 3 day
# [4] = 30 mg/kg, 120 h, dose level Low, time 5 day
smiles,measurement,setting,value
CS(=O)(=O)Nc1ccc([N+](=O)[O-])cc1Oc1ccccc1 [NIMESULIDE],ABSOLUTE BASOPHIL,[1],0 CELLS/uL
same,ABSOLUTE EOSINOPHIL,[1],0 CELLS/uL
same,ABSOLUTE LYMPHOCYTE,[1],7601 CELLS/uL
same,ABSOLUTE MONOCYTE,[1],354.33 CELLS/uL
same,ABSOLUTE SEGMENTED NEUTROPHIL,[1],744.67 CELLS/uL
same,BASOPHIL,[1],0%
same,EOSINOPHIL,[1],0%
same,ERYTHROCYTE COUNT,[1],5.03 x10E6/uL
same,HEMATOCRIT,[1],33.7%
same,HEMOGLOBIN,[1],13.43 G/DL
same,LEUKOCYTE COUNT,[1],8.7 x10E3/uL
same,LYMPHOCYTE,[1],86.33%
same,MEAN CORPUSCULAR HEMOGLOBIN,[1],26.7 pg
same,MEAN CORPUSCULAR HEMOGLOBIN CONCENTRATION,[1],39.83 G/DL
same,MEAN CORPUSCULAR VOLUME,[1],67 fL
same,MONOCYTE,[1],4.67%
same,NEUTROPHIL,[1],9%
same,NUCLEATED RED BLOOD CELLS,[1],0 /100WBC
same,PLATELET COUNT,[1],1151 x10E3/uL
same,ALANINE AMINOTRANSFERASE,[1],97.67 u/L
same,ALBUMIN,[1],4.07 G/DL
same,ALKALINE PHOSPHATASE,[1],607.67 u/L
same,ASPARTATE AMINOTRANSFERASE,[1],101 u/L
same,BLOOD UREA NITROGEN,[1],13.33 mg/dL
same,CARBON DIOXIDE,[1],36 mmol/L
same,CHLORIDE,[1],99.67 MEQ/L
same,CHOLESTEROL,[1],75.67 mg/dL
same,CREATINE PHOSPHOKINASE,[1],279.67 u/L
same,CREATININE,[1],0.16 mg/dL
same,GLUCOSE,[1],164 mg/dL
same,LACTATE DEHYDROGENASE,[1],115 u/L
same,LIPASE,[1],12.67 u/L
same,PHOSPHORUS,[1],8.77 mg/dL
same,POTASSIUM,[1],5.79 MEQ/L
same,SODIUM,[1],142.83 MEQ/L
same,TOTAL BILIRUBIN,[1],0.27 mg/dL
same,TOTAL PROTEIN,[1],5.8 G/DL
same,URIC ACID,[1],0.67 mg/dL
same,ABSOLUTE BASOPHIL,[2],0 CELLS/uL
same,ABSOLUTE EOSINOPHIL,[2],0 CELLS/uL
same,ABSOLUTE LYMPHOCYTE,[2],4426.33 CELLS/uL
same,ABSOLUTE MONOCYTE,[2],102.67 CELLS/uL
same,ABSOLUTE SEGMENTED NEUTROPHIL,[2],337.67 CELLS/uL
same,BASOPHIL,[2],0%
same,EOSINOPHIL,[2],0%
same,ERYTHROCYTE COUNT,[2],5.31 x10E6/uL
same,HEMATOCRIT,[2],32.5%
same,HEMOGLOBIN,[2],13.17 G/DL
same,LEUKOCYTE COUNT,[2],4.87 x10E3/uL
same,LYMPHOCYTE,[2],90.33%
same,MEAN CORPUSCULAR HEMOGLOBIN,[2],24.93 pg
same,MEAN CORPUSCULAR HEMOGLOBIN CONCENTRATION,[2],40.67 G/DL
same,MEAN CORPUSCULAR VOLUME,[2],61.33 fL
same,MONOCYTE,[2],2.33%
same,NEUTROPHIL,[2],7.33%
same,NUCLEATED RED BLOOD CELLS,[2],0.33 /100WBC
same,PLATELET COUNT,[2],848.33 x10E3/uL
same,ALANINE AMINOTRANSFERASE,[2],59.67 u/L
same,ALBUMIN,[2],3.87 G/DL
same,ALKALINE PHOSPHATASE,[2],452 u/L
same,ASPARTATE AMINOTRANSFERASE,[2],81.33 u/L
same,BLOOD UREA NITROGEN,[2],13.67 mg/dL
same,CARBON DIOXIDE,[2],26.33 mmol/L
same,CHLORIDE,[2],103.67 MEQ/L
same,CHOLESTEROL,[2],65.67 mg/dL
same,CREATINE PHOSPHOKINASE,[2],355.33 u/L
same,CREATININE,[2],0.14 mg/dL
same,GLUCOSE,[2],171.33 mg/dL
same,LACTATE DEHYDROGENASE,[2],118 u/L
same,LIPASE,[2],11.33 u/L
same,PHOSPHORUS,[2],11.13 mg/dL
same,POTASSIUM,[2],5.18 MEQ/L
same,SODIUM,[2],143.17 MEQ/L
same,TOTAL BILIRUBIN,[2],0.2 mg/dL
same,TOTAL PROTEIN,[2],5.87 G/DL
same,URIC ACID,[2],0.63 mg/dL
same,ABSOLUTE BASOPHIL,[3],0 CELLS/uL
same,ABSOLUTE EOSINOPHIL,[3],25.33 CELLS/uL
same,ABSOLUTE LYMPHOCYTE,[3],7491.33 CELLS/uL
same,ABSOLUTE MONOCYTE,[3],125 CELLS/uL
same,ABSOLUTE SEGMENTED NEUTROPHIL,[3],858.33 CELLS/uL
same,BASOPHIL,[3],0%
same,EOSINOPHIL,[3],0.33%
same,ERYTHROCYTE COUNT,[3],5.1 x10E6/uL
same,HEMATOCRIT,[3],33.1%
same,HEMOGLOBIN,[3],12.87 G/DL
same,LEUKOCYTE COUNT,[3],8.5 x10E3/uL
same,LYMPHOCYTE,[3],88%
same,MEAN CORPUSCULAR HEMOGLOBIN,[3],25.23 pg
same,MEAN CORPUSCULAR HEMOGLOBIN CONCENTRATION,[3],38.87 G/DL
same,MEAN CORPUSCULAR VOLUME,[3],64.93 fL
same,MONOCYTE,[3],1.33%
same,NEUTROPHIL,[3],10.33%
same,NUCLEATED RED BLOOD CELLS,[3],0 /100WBC
same,PLATELET COUNT,[3],1037.67 x10E3/uL
same,ALANINE AMINOTRANSFERASE,[3],125.67 u/L
same,ALBUMIN,[3],4.17 G/DL
same,ALKALINE PHOSPHATASE,[3],434 u/L
same,ASPARTATE AMINOTRANSFERASE,[3],117 u/L
same,BLOOD UREA NITROGEN,[3],11 mg/dL
same,CARBON DIOXIDE,[3],35 mmol/L
same,CHLORIDE,[3],106.33 MEQ/L
same,CHOLESTEROL,[3],78 mg/dL
same,CREATINE PHOSPHOKINASE,[3],456.33 u/L
same,CREATININE,[3],0.28 mg/dL
same,GLUCOSE,[3],158.67 mg/dL
same,LACTATE DEHYDROGENASE,[3],119.33 u/L
same,LIPASE,[3],11 u/L
same,PHOSPHORUS,[3],8.8 mg/dL
same,POTASSIUM,[3],5.65 MEQ/L
same,SODIUM,[3],146.27 MEQ/L
same,TOTAL BILIRUBIN,[3],0.13 mg/dL
same,TOTAL PROTEIN,[3],5.7 G/DL
same,URIC ACID,[3],0.63 mg/dL
same,ABSOLUTE BASOPHIL,[4],0 CELLS/uL
same,ABSOLUTE EOSINOPHIL,[4],83.33 CELLS/uL
same,ABSOLUTE LYMPHOCYTE,[4],10811.33 CELLS/uL
same,ABSOLUTE MONOCYTE,[4],335.67 CELLS/uL
same,ABSOLUTE SEGMENTED NEUTROPHIL,[4],1536.33 CELLS/uL
same,BASOPHIL,[4],0%
same,EOSINOPHIL,[4],0.33%
same,ERYTHROCYTE COUNT,[4],5.57 x10E6/uL
same,HEMATOCRIT,[4],36.37%
same,HEMOGLOBIN,[4],13.93 G/DL
same,LEUKOCYTE COUNT,[4],12.77 x10E3/uL
same,LYMPHOCYTE,[4],87.33%
same,MEAN CORPUSCULAR HEMOGLOBIN,[4],25 pg
same,MEAN CORPUSCULAR HEMOGLOBIN CONCENTRATION,[4],38.33 G/DL
same,MEAN CORPUSCULAR VOLUME,[4],65.23 fL
same,MONOCYTE,[4],2.33%
same,NEUTROPHIL,[4],10%
same,NUCLEATED RED BLOOD CELLS,[4],0 /100WBC
same,PLATELET COUNT,[4],1176 x10E3/uL
same,ALANINE AMINOTRANSFERASE,[4],52 u/L
same,ALBUMIN,[4],4.27 G/DL
same,ALKALINE PHOSPHATASE,[4],326 u/L
same,ASPARTATE AMINOTRANSFERASE,[4],65.67 u/L
same,BLOOD UREA NITROGEN,[4],16 mg/dL
same,CARBON DIOXIDE,[4],24.67 mmol/L
same,CHLORIDE,[4],108.33 MEQ/L
same,CHOLESTEROL,[4],74.67 mg/dL
same,CREATINE PHOSPHOKINASE,[4],187 u/L
same,CREATININE,[4],0.16 mg/dL
same,GLUCOSE,[4],176.33 mg/dL
same,LACTATE DEHYDROGENASE,[4],75.67 u/L
same,LIPASE,[4],10.33 u/L
same,PHOSPHORUS,[4],10.53 mg/dL
same,POTASSIUM,[4],4.45 MEQ/L
same,SODIUM,[4],149.7 MEQ/L
same,TOTAL BILIRUBIN,[4],0.1 mg/dL
same,TOTAL PROTEIN,[4],6.33 G/DL
same,URIC ACID,[4],0.6 mg/dL
